Test results as given in ChEMBL document CHEMBL5678807, “A selective jumonji H3K27 demethylase inhibitor modulates the proinflammatory macrophage response” (Nature, 2012).

Tests used:
[1] = test system: Macrophage; experiment: Antiinflammatory activity in human primary macrophages assessed as effect on LPS-induced IL1B gene expression at 30 uM measured after 2 hrs by RT-PCR array (reference value: 15266918 a.u.); type: functional
[2] = test system: Macrophage; experiment: Antiinflammatory activity in human primary macrophages assessed as effect on LPS-induced IL12B gene expression at 30 uM measured after 2 hrs by RT-PCR array (reference value: 17908 a.u.); type: functional
[3] = test system: Macrophage; experiment: Antiinflammatory activity in human primary macrophages assessed as effect on LPS-induced TNFSF13B gene expression at 30 uM measured after 2 hrs by RT-PCR array (reference value: 28045 a.u.); type: functional
[4] = test system: Macrophage; experiment: Antiinflammatory activity in human primary macrophages assessed as effect on LPS-induced TGFB1 gene expression at 30 uM measured after 2 hrs by RT-PCR array (reference value: 72816 a.u.); type: functional
[5] = test system: Macrophage; experiment: Antiinflammatory activity in human primary macrophages assessed as effect on LPS-induced INHBA gene expression at 30 uM measured after 2 hrs by RT-PCR array (reference value: 785853 a.u.); type: functional
[6] = test system: Macrophage; experiment: Antiinflammatory activity in human primary macrophages assessed as effect on LPS-induced BMP6 gene expression at 30 uM measured after 2 hrs by RT-PCR array (reference value: 1526 a.u.); type: functional
[7] = test system: Macrophage; experiment: Antiinflammatory activity in human primary macrophages assessed as effect on LPS-induced BMP8B gene expression at 30 uM measured after 2 hrs by RT-PCR array (reference value: 1117 a.u.); type: functional
[8] = test system: Macrophage; experiment: Antiinflammatory activity in human primary macrophages assessed as effect on LPS-induced IFNB1 gene expression at 30 uM measured after 2 hrs by RT-PCR array (reference value: 1415030 a.u.); type: functional
[9] = test system: Macrophage; experiment: Antiinflammatory activity in human primary macrophages assessed as effect on LPS-induced LTA gene expression at 30 uM measured after 2 hrs by RT-PCR array (reference value: 11322 a.u.); type: functional
[10] = test system: Macrophage; experiment: Antiinflammatory activity in human primary macrophages assessed as effect on LPS-induced BMP2 gene expression at 30 uM measured after 2 hrs by RT-PCR array (reference value: 331 a.u.); type: functional
[11] = test system: Macrophage; experiment: Antiinflammatory activity in human primary macrophages assessed as effect on LPS-induced IL1F5 gene expression at 30 uM measured after 2 hrs by RT-PCR array (reference value: 2464 a.u.); type: functional
[12] = test system: Macrophage; experiment: Antiinflammatory activity in human primary macrophages assessed as effect on LPS-induced TGFB3 gene expression at 30 uM measured after 2 hrs by RT-PCR array (reference value: 524 a.u.); type: functional
[13] = test system: Macrophage; experiment: Antiinflammatory activity in human primary macrophages assessed as effect on LPS-induced TNFSF8 gene expression at 30 uM measured after 2 hrs by RT-PCR array (reference value: 248127 a.u.); type: functional
[14] = test system: Macrophage; experiment: Antiinflammatory activity in human primary macrophages assessed as effect on LPS-induced IL20 gene expression at 30 uM measured after 2 hrs by RT-PCR array (reference value: 2040 a.u.); type: functional
[15] = test system: Macrophage; experiment: Antiinflammatory activity in human primary macrophages assessed as effect on LPS-induced IL10 gene expression at 30 uM measured after 2 hrs by RT-PCR array (reference value: 47621 a.u.); type: functional
[16] = test system: Macrophage; experiment: Antiinflammatory activity in human primary macrophages assessed as effect on LPS-induced TNFSF10 gene expression at 30 uM measured after 2 hrs by RT-PCR array (reference value: 221027 a.u.); type: functional
[17] = test system: Macrophage; experiment: Antiinflammatory activity in human primary macrophages assessed as effect on LPS-induced IFNA4 gene expression at 30 uM measured after 2 hrs by RT-PCR array (reference value: 28 a.u.); type: functional
[18] = test system: Macrophage; experiment: Antiinflammatory activity in human primary macrophages assessed as effect on LPS-induced IL24 gene expression at 30 uM measured after 2 hrs by RT-PCR array (reference value: 12164 a.u.); type: functional
[19] = test system: Macrophage; experiment: Antiinflammatory activity in human primary macrophages assessed as effect on LPS-induced IL19 gene expression at 30 uM measured after 2 hrs by RT-PCR array (reference value: 13781 a.u.); type: functional
[20] = test system: Macrophage; experiment: Antiinflammatory activity in human primary macrophages assessed as effect on LPS-induced CSF2 gene expression at 30 uM measured after 2 hrs by RT-PCR array (reference value: 248134 a.u.); type: functional
[21] = test system: Macrophage; experiment: Antiinflammatory activity in human primary macrophages assessed as effect on LPS-induced NODAL gene expression at 30 uM measured after 2 hrs by RT-PCR array (reference value: 125 a.u.); type: functional
[22] = target: 5-hydroxytryptamine receptor 1B (Homo sapiens, UniProt P28222); experiment: Agonist activity at human 5-HT1B by SPA; type: functional
[23] = target: Substance-P receptor (Homo sapiens, UniProt P25103); experiment: Antagonist activity at human NK-1 by intracellular Ca luminescence assay; type: functional, cell-based
[24] = target: Protein deacetylase HDAC6 (Homo sapiens, UniProt Q9UBN7); experiment: Inhibition of human HDAC6 by FLINT assay
[25] = target: PXR (NR1I2) (Homo sapiens, UniProt O75469); experiment: Agonist activity at human PXR by luciferase reporter assay
[26] = target: Histone deacetylase 8 (Homo sapiens, UniProt Q9BY41); experiment: Inhibition of human HDAC8 by FLINT assay
[27] = target: Aryl hydrocarbon receptor (Homo sapiens, UniProt P35869); experiment: Agonist activity at human AhR by TR-FRET assay
[28] = target: Voltage-gated potassium channel, IKs; KCNQ1(Kv7.1)/KCNE1(MinK) (Homo sapiens, UniProt P51787+P15382); experiment: Blockade of human KCNQ1/KCNE1 by electrophysiology assay; type: protein-complex assay
[29] = target: Alpha-2C adrenergic receptor (Homo sapiens, UniProt P18825); experiment: Agonist activity at human alpha 2C adrenoceptor by TR-FRET assay
[30] = target: Adenosine receptor A2a (Homo sapiens, UniProt P29274); experiment: Agonist activity at human adenosine A2a by TR-FRET assay; type: functional
[31] = target: Histone deacetylase 1 (Homo sapiens, UniProt Q13547); experiment: Inhibition of human HDAC1 by FLINT assay
[32] = target: Histone deacetylase 7 (Homo sapiens, UniProt Q8WUI4); experiment: Inhibition of human HDAC7 by FLINT assay
[33] = target: Amine oxidase [flavin-containing] B (Homo sapiens, UniProt P27338); experiment: Inhibition of human MAOB by FLINT assay
[34] = target: Sodium channel protein type 5 subunit alpha (Homo sapiens, UniProt Q14524); experiment: Blockade of human NaV1.5 by electrophysiology assay
[35] = target: 3',5'-cyclic-AMP phosphodiesterase 4B (Homo sapiens, UniProt Q07343); experiment: Inhibition of human PDE4B by luminescence assay
[36] = target: hERG (KCNH2) (Homo sapiens, UniProt Q12809); experiment: Binding affinity to human ERG by FP binding assay; type: toxicity
[37] = Agonist activity at human 5-HT3 by intracellular Ca fluorescence assay; type: cell-based

Aryl hydrocarbon receptor, sequence (P35869 whole entry): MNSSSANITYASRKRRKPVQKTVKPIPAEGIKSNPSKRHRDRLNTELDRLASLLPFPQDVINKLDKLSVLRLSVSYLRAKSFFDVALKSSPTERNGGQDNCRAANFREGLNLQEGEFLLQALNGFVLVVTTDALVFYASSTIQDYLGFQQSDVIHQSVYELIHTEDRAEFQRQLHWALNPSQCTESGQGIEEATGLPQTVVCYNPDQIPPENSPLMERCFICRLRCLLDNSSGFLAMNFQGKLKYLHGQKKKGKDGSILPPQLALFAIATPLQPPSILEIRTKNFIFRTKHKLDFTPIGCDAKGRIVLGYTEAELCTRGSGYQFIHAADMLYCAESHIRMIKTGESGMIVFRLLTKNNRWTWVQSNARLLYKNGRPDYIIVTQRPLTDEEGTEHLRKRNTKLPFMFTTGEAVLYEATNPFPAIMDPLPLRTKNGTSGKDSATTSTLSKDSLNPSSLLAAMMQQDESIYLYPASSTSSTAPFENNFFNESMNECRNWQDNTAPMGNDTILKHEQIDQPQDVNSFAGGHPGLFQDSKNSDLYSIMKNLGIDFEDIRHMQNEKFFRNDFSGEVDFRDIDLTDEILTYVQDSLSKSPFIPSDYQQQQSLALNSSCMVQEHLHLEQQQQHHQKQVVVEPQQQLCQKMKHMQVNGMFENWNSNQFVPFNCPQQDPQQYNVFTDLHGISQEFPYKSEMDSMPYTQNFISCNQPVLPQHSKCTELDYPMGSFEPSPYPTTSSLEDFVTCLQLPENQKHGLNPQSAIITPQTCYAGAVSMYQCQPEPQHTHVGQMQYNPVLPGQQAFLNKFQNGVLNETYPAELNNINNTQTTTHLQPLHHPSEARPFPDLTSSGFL
Amine oxidase [flavin-containing] B, sequence (P27338 whole entry): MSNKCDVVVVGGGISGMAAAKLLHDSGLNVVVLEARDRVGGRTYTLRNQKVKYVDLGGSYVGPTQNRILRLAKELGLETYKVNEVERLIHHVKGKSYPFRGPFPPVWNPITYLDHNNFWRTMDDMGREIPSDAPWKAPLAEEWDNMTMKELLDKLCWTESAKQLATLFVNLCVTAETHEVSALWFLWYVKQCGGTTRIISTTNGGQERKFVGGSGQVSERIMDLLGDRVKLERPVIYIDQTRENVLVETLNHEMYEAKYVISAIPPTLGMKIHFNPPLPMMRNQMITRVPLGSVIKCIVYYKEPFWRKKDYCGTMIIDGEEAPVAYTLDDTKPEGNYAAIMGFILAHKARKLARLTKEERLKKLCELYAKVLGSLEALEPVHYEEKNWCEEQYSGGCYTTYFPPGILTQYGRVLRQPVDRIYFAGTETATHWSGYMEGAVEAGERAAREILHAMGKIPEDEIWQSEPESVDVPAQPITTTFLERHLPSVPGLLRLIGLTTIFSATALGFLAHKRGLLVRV
Histone deacetylase 7, sequence (Q8WUI4 whole entry): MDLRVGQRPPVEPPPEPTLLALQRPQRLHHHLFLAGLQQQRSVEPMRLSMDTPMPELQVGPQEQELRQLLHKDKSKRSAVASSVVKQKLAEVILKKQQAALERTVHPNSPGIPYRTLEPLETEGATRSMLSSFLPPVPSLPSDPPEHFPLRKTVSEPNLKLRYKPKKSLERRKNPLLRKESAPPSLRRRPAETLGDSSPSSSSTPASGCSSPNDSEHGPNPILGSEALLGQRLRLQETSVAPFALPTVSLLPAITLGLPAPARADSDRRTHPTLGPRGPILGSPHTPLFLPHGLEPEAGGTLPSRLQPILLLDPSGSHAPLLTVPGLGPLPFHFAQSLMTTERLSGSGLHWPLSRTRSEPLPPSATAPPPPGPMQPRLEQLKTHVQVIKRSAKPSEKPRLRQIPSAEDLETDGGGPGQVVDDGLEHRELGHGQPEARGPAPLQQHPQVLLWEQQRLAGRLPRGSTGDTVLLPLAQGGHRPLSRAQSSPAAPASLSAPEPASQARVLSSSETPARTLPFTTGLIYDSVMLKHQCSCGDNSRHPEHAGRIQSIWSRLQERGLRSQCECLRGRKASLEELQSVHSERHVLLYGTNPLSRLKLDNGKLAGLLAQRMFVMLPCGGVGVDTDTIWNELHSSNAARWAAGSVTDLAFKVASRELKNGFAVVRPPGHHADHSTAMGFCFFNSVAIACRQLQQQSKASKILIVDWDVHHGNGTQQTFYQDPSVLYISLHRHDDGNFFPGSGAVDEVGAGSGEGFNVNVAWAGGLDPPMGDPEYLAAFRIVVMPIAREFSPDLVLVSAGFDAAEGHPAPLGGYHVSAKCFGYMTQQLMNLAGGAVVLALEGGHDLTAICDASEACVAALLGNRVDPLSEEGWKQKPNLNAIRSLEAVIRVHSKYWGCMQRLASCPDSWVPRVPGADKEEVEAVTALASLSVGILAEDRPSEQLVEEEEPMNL
Histone deacetylase 8, sequence (Q9BY41 whole entry): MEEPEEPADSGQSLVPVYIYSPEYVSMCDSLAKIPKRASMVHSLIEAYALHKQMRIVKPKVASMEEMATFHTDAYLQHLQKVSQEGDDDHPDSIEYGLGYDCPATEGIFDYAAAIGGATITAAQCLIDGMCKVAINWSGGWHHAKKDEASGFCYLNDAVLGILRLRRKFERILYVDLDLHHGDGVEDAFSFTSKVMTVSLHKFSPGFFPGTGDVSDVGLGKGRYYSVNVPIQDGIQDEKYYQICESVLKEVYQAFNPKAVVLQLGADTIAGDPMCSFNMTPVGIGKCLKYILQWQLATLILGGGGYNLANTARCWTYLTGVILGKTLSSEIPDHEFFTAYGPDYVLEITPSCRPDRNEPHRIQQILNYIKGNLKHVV
Protein deacetylase HDAC6, sequence (Q9UBN7 whole entry): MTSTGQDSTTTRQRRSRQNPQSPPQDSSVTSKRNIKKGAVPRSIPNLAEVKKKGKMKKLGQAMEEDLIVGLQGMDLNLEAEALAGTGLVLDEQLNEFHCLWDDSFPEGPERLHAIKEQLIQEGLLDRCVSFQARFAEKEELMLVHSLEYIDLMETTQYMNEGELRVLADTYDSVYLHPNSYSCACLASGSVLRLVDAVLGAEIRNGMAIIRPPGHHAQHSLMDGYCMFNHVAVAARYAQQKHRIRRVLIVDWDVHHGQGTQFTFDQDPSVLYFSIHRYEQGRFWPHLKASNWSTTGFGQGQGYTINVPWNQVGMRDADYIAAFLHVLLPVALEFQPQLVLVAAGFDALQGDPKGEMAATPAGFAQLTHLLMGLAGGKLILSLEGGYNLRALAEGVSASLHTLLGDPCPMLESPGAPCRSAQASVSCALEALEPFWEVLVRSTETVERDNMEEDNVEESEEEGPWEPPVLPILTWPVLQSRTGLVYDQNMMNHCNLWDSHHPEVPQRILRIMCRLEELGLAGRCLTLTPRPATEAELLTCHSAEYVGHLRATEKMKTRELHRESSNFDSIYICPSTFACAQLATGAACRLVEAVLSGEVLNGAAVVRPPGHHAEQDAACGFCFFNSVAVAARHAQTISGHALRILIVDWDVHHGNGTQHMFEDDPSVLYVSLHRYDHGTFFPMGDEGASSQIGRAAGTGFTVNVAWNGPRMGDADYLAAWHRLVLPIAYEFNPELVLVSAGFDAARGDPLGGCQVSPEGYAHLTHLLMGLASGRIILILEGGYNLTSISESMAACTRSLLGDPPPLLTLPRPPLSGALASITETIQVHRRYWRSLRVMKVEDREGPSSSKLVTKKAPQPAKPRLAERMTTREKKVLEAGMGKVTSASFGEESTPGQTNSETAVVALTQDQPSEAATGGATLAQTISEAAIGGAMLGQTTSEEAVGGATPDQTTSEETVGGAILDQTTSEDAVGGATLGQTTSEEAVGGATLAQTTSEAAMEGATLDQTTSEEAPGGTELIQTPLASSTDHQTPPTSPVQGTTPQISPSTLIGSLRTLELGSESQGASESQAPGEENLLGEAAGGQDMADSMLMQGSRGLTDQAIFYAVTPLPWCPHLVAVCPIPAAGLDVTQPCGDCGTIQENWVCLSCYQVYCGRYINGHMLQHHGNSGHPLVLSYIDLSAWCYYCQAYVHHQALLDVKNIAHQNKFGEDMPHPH
5-hydroxytryptamine receptor 1B, sequence (P28222 whole entry): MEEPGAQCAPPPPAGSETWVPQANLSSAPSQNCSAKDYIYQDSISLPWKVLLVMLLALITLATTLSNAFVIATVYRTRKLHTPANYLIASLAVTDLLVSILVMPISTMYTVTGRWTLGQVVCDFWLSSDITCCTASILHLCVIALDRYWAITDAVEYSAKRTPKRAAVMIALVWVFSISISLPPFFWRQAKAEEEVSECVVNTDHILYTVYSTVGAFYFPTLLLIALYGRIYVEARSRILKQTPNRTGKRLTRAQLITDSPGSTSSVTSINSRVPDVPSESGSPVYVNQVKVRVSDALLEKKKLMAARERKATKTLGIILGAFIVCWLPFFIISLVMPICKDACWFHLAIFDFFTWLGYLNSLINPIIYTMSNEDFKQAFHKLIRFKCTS
Adenosine receptor A2a, sequence (P29274 whole entry): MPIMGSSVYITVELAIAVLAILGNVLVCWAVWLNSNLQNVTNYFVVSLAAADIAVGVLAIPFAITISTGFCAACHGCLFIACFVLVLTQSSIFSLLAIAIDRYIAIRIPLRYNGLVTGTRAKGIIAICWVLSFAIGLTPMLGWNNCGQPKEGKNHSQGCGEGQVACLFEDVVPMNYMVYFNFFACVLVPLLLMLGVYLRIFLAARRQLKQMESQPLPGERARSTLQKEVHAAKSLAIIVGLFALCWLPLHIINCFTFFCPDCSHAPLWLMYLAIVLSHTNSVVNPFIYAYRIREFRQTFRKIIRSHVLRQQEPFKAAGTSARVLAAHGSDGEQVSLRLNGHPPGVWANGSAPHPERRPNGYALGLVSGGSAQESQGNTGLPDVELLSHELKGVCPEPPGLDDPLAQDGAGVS

| SMILES | Activity [1] [a.u.] | Activity [2] [a.u.] | Activity [3] [a.u.] | Activity [4] [a.u.] | Activity [5] [a.u.] | Activity [6] [a.u.] | Activity [7] [a.u.] | Activity [8] [a.u.] | Activity [9] [a.u.] | Activity [10] [a.u.] | Activity [11] [a.u.] | Activity [12] [a.u.] | Activity [13] [a.u.] | Activity [14] [a.u.] | Activity [15] [a.u.] | Activity [16] [a.u.] | Activity [17] [a.u.] | Activity [18] [a.u.] | Activity [19] [a.u.] | Activity [20] [a.u.] | further results |
| --- | --- | --- | --- | --- | --- | --- | --- | --- | --- | --- | --- | --- | --- | --- | --- | --- | --- | --- | --- | --- | --- |
| CCOC(=O)CCNc1cc(N2CCc3ccccc3CC2)nc(-c2ccccn2)n1 | 3032303 | 3068 | 18715 | 50103 | 157533 | 293 | 820 | 153760 | 708 | 3 | 233 | 650 | 17105 | 372 | 4765 | 39793 | 25 | 11754 | 1216 | 10602 | Activity [21]: 197 a.u. |
| O=C(O)CCNc1cc(N2CCc3ccccc3CC2)nc(-c2ccccn2)n1 |  |  |  |  |  |  |  |  |  |  |  |  |  |  |  |  |  |  |  |  | XC50 [22]: > 32 µM; XC50 [23]: > 40 µM; XC50 [24]: > 300 µM; XC50 [25]: > 50 µM; XC50 [26]: > 300 µM; XC50 [27]: > 100 µM; XC50 [28]: > 25 µM; XC50 [29]: > 32 µM; XC50 [30]: > 32 µM; XC50 [31]: > 300 µM; XC50 [32]: > 300 µM; XC50 [33]: 25 µM; XC50 [34]: 79 µM; XC50 [35]: 100 µM; XC50 [36]: 32 µM; XC50 [37]: > 50 µM |
| O=C(O)CCNc1cc(N2CCc3ccccc3CC2)nc(-c2cccnc2)n1 |  |  |  |  |  |  |  |  |  |  |  |  |  |  |  |  |  |  |  |  | XC50 [22]: > 32 µM; XC50 [23]: > 40 µM; XC50 [24]: > 300 µM; XC50 [25]: 10 µM; XC50 [26]: > 300 µM; XC50 [27]: 0.32 µM; XC50 [28]: > 25 µM; XC50 [29]: > 32 µM; XC50 [30]: > 32 µM; XC50 [31]: > 300 µM; XC50 [32]: > 300 µM; XC50 [33]: 25 µM; XC50 [34]: 50 µM; XC50 [35]: 40 µM; XC50 [36]: > 100 µM; XC50 [37]: > 50 µM |
| CCOC(=O)CCNc1cc(N2CCc3ccccc3CC2)nc(-c2cccnc2)n1 | 10300355 | 17395 | 22792 | 49233 | 558833 | 1399 | 1235 | 1501879 | 9224 | 347 | 2254 | 357 | 115933 | 748 | 31748 | 132521 | 1 | 10100 | 1914 | 67356 | Activity [21]: 45 a.u. |
